Measured values reported in the NIST ThermoML archive (doi:10.1016/j.jct.2013.01.005).

Key:
[1] = 101.33 kPa, Liquid, Vibrating tube method
[2] = activity coefficient (dimensionless); of the first substance listed, at infinite dilution; xn = mol fraction of the nth substance listed; conditions: 101 kPa, Liquid, Chromatography, x1 = 0

CCCCCC[N+]1(C)CCCCC1.O=S(=O)([N-]S(=O)(=O)C(F)(F)F)C(F)(F)F
[1]
Conditions	mass density [kg/m3]
293.15 K	1329.53
298.15 K	1325.41
303.15 K	1321.3
308.15 K	1317.2
313.15 K	1313.11
318.15 K	1309.04
323.15 K	1304.98
328.15 K	1300.93
333.15 K	1296.9
338.15 K	1292.88
343.15 K	1288.87
348.15 K	1284.87
353.15 K	1280.88
358.15 K	1276.91

CCCCC[N+]1(C)CCCCC1.O=S(=O)([N-]S(=O)(=O)C(F)(F)F)C(F)(F)F
[1]
Conditions	mass density [kg/m3]
293.15 K	1354.47
298.15 K	1350.13
303.15 K	1345.85
308.15 K	1341.7
313.15 K	1337.54
318.15 K	1333.36
323.15 K	1329.2
328.15 K	1325.05
333.15 K	1320.89
338.15 K	1316.75
343.15 K	1312.6
348.15 K	1308.46
353.15 K	1304.36
358.15 K	1300.26

C=CCCCC [hex-1-ene] + CCCCC[N+]1(C)CCCCC1.O=S(=O)([N-]S(=O)(=O)C(F)(F)F)C(F)(F)F
[2]
Conditions	activity coefficient
308.15 K	5.52
318.15 K	5.31
328.15 K	5.13
338.15 K	5
348.15 K	4.92
358.15 K	4.8

CCCCCC [hexane] + CCCCCC[N+]1(C)CCCCC1.O=S(=O)([N-]S(=O)(=O)C(F)(F)F)C(F)(F)F
[2]
Conditions	activity coefficient
308.15 K	7.67
318.15 K	7.4
328.15 K	7.07
338.15 K	6.85
348.15 K	6.67
358.15 K	6.37

CCCCCC [hexane] + CCCCC[N+]1(C)CCCCC1.O=S(=O)([N-]S(=O)(=O)C(F)(F)F)C(F)(F)F
[2]
Conditions	activity coefficient
308.15 K	9.9
318.15 K	9.5
328.15 K	8.9
338.15 K	8.45
348.15 K	8.19
358.15 K	7.92

CO [methanol] + CCCCCC[N+]1(C)CCCCC1.O=S(=O)([N-]S(=O)(=O)C(F)(F)F)C(F)(F)F
[2]
Conditions	activity coefficient
308.15 K	1.51
318.15 K	1.37
328.15 K	1.26
338.15 K	1.16
348.15 K	1.08
358.15 K	0.995

CO [methanol] + CCCCC[N+]1(C)CCCCC1.O=S(=O)([N-]S(=O)(=O)C(F)(F)F)C(F)(F)F
[2]
Conditions	activity coefficient
308.15 K	1.45
318.15 K	1.32
328.15 K	1.21
338.15 K	1.12
348.15 K	1.07
358.15 K	1

CC1CCCCC1 [methylcyclohexane] + CCCCCC[N+]1(C)CCCCC1.O=S(=O)([N-]S(=O)(=O)C(F)(F)F)C(F)(F)F
[2]
Conditions	activity coefficient
308.15 K	6.24
318.15 K	6.05
328.15 K	5.83
338.15 K	5.59
348.15 K	5.4
358.15 K	5.2

CC1CCCCC1 [methylcyclohexane] + CCCCC[N+]1(C)CCCCC1.O=S(=O)([N-]S(=O)(=O)C(F)(F)F)C(F)(F)F
[2]
Conditions	activity coefficient
308.15 K	7.8
318.15 K	7.49
328.15 K	7.16
338.15 K	6.87
348.15 K	6.64
358.15 K	6.42

CCCCCCCCC [nonane] + CCCCCC[N+]1(C)CCCCC1.O=S(=O)([N-]S(=O)(=O)C(F)(F)F)C(F)(F)F
[2]
Conditions	activity coefficient
308.15 K	16.9
318.15 K	16.4
328.15 K	15.7
338.15 K	15.3
348.15 K	14.6
358.15 K	14.1

CCCCCCCCC [nonane] + CCCCC[N+]1(C)CCCCC1.O=S(=O)([N-]S(=O)(=O)C(F)(F)F)C(F)(F)F
[2]
Conditions	activity coefficient
308.15 K	24.2
318.15 K	22.4
328.15 K	21.1
338.15 K	19.9
348.15 K	19
358.15 K	18

C=CCCCCCC [oct-1-ene] + CCCCCC[N+]1(C)CCCCC1.O=S(=O)([N-]S(=O)(=O)C(F)(F)F)C(F)(F)F
[2]
Conditions	activity coefficient
308.15 K	7.72
318.15 K	7.6
328.15 K	7.49
338.15 K	7.37
348.15 K	7.27
358.15 K	7.2

C=CCCCCCC [oct-1-ene] + CCCCC[N+]1(C)CCCCC1.O=S(=O)([N-]S(=O)(=O)C(F)(F)F)C(F)(F)F
[2]
Conditions	activity coefficient
308.15 K	9.9
318.15 K	9.65
328.15 K	9.28
338.15 K	8.94
348.15 K	8.77
358.15 K	8.47

CCCCCCCC [octane] + CCCCCC[N+]1(C)CCCCC1.O=S(=O)([N-]S(=O)(=O)C(F)(F)F)C(F)(F)F
[2]
Conditions	activity coefficient
308.15 K	12.9
318.15 K	12.7
328.15 K	12.1
338.15 K	11.8
348.15 K	11.3
358.15 K	10.9

CCCCCCCC [octane] + CCCCC[N+]1(C)CCCCC1.O=S(=O)([N-]S(=O)(=O)C(F)(F)F)C(F)(F)F
[2]
Conditions	activity coefficient
308.15 K	18.2
318.15 K	16.9
328.15 K	15.9
338.15 K	15.1
348.15 K	14.4
358.15 K	13.7

CCCCCO [pentan-1-ol] + CCCCCC[N+]1(C)CCCCC1.O=S(=O)([N-]S(=O)(=O)C(F)(F)F)C(F)(F)F
[2]
Conditions	activity coefficient
308.15 K	2.44
318.15 K	2.23
328.15 K	2.05
338.15 K	1.92
348.15 K	1.8
358.15 K	1.71

CCCCCO [pentan-1-ol] + CCCCC[N+]1(C)CCCCC1.O=S(=O)([N-]S(=O)(=O)C(F)(F)F)C(F)(F)F
[2]
Conditions	activity coefficient
308.15 K	2.5
318.15 K	2.37
328.15 K	2.2
338.15 K	2.03
348.15 K	1.94
358.15 K	1.79

CCCC(C)=O [pentan-2-one] + CCCCCC[N+]1(C)CCCCC1.O=S(=O)([N-]S(=O)(=O)C(F)(F)F)C(F)(F)F
[2]
Conditions	activity coefficient
308.15 K	0.573
318.15 K	0.581
328.15 K	0.596
338.15 K	0.613
348.15 K	0.632
358.15 K	0.646

CCCC(C)=O [pentan-2-one] + CCCCC[N+]1(C)CCCCC1.O=S(=O)([N-]S(=O)(=O)C(F)(F)F)C(F)(F)F
[2]
Conditions	activity coefficient
318.15 K	0.611
328.15 K	0.629
338.15 K	0.643
348.15 K	0.666
358.15 K	0.682

CCCCC [pentane] + CCCCCC[N+]1(C)CCCCC1.O=S(=O)([N-]S(=O)(=O)C(F)(F)F)C(F)(F)F
[2]
Conditions	activity coefficient
308.15 K	5.95
318.15 K	5.73
328.15 K	5.42
338.15 K	5.3
348.15 K	5.2
358.15 K	4.95

CCCO [propan-1-ol] + CCCCCC[N+]1(C)CCCCC1.O=S(=O)([N-]S(=O)(=O)C(F)(F)F)C(F)(F)F
[2]
Conditions	activity coefficient
308.15 K	2.05
318.15 K	1.83
328.15 K	1.67
338.15 K	1.53
348.15 K	1.43
358.15 K	1.33

CCCO [propan-1-ol] + CCCCC[N+]1(C)CCCCC1.O=S(=O)([N-]S(=O)(=O)C(F)(F)F)C(F)(F)F
[2]
Conditions	activity coefficient
308.15 K	2.05
318.15 K	1.82
328.15 K	1.68
338.15 K	1.55
348.15 K	1.46
358.15 K	1.36

C1CCOC1 [tetrahydrofuran] + CCCCCC[N+]1(C)CCCCC1.O=S(=O)([N-]S(=O)(=O)C(F)(F)F)C(F)(F)F
[2]
Conditions	activity coefficient
308.15 K	0.563
318.15 K	0.579
328.15 K	0.594
338.15 K	0.612
348.15 K	0.627
358.15 K	0.635

C1CCOC1 [tetrahydrofuran] + CCCCC[N+]1(C)CCCCC1.O=S(=O)([N-]S(=O)(=O)C(F)(F)F)C(F)(F)F
[2]
Conditions	activity coefficient
308.15 K	0.617
318.15 K	0.627
328.15 K	0.641
338.15 K	0.653
348.15 K	0.667
358.15 K	0.682

c1ccsc1 [thiophene] + CCCCCC[N+]1(C)CCCCC1.O=S(=O)([N-]S(=O)(=O)C(F)(F)F)C(F)(F)F
[2]
Conditions	activity coefficient
308.15 K	0.614
318.15 K	0.627
328.15 K	0.643
338.15 K	0.655
348.15 K	0.664
358.15 K	0.675

c1ccsc1 [thiophene] + CCCCC[N+]1(C)CCCCC1.O=S(=O)([N-]S(=O)(=O)C(F)(F)F)C(F)(F)F
[2]
Conditions	activity coefficient
308.15 K	0.646
318.15 K	0.665
328.15 K	0.673
338.15 K	0.69
348.15 K	0.708
358.15 K	0.722

Cc1ccccc1 [toluene] + CCCCCC[N+]1(C)CCCCC1.O=S(=O)([N-]S(=O)(=O)C(F)(F)F)C(F)(F)F
[2]
Conditions	activity coefficient
308.15 K	0.864
318.15 K	0.894
328.15 K	0.909
338.15 K	0.934
348.15 K	0.957
358.15 K	0.969

Cc1ccccc1 [toluene] + CCCCC[N+]1(C)CCCCC1.O=S(=O)([N-]S(=O)(=O)C(F)(F)F)C(F)(F)F
[2]
Conditions	activity coefficient
308.15 K	0.91
318.15 K	0.919
328.15 K	0.955
338.15 K	0.975
348.15 K	1.01
358.15 K	1.05

O [water] + CCCCCC[N+]1(C)CCCCC1.O=S(=O)([N-]S(=O)(=O)C(F)(F)F)C(F)(F)F
[2]
Conditions	activity coefficient
308.15 K	5.31
318.15 K	4.46
328.15 K	3.81
338.15 K	3.26
348.15 K	2.8
358.15 K	2.45

O [water] + CCCCC[N+]1(C)CCCCC1.O=S(=O)([N-]S(=O)(=O)C(F)(F)F)C(F)(F)F
[2]
Conditions	activity coefficient
308.15 K	5.05
318.15 K	4.19
328.15 K	3.7
338.15 K	3.18
348.15 K	2.78
358.15 K	2.44
